Test results taken from US10800807B2, “TGR5 modulators and methods of use thereof” (Intercept Pharmaceuticals, Inc., priority 2015, dated 2020).
Changes are numbered by the printed parent chain. Converted amounts (≈) assume the structure as drawn.

Assays:
[1] = Critical micellar concentration (surface tension / dye solubilization); assay type: physicochemical; conditions: for CMC: BA sodium salts in 0.1 M NaCl, 25° C.; for STCMC: surface tension at CMC
Experimental: In the first method, the surface tension was performed by maximum bubble-pressure method using a Sensadyne 6000 tensiometer (Chem-Dyne Research Corp., Milwaukee, Wis.). The surface tension of aqueous solutions at various concentrations (range 0.1-100 mM) of the BA sodium salts in 0.1 M NaCl was measured at 25° C. The surface tension values were plotted against the logarithm of the bile salt concentration; the regression lines corresponding to the two parts of the curve (monomeric and micellar phases) were calculated using the method of least squares. The critical micellar concentration (CMC) value (mM) was obtained by the intersection of the two lines.
The second method is based on the fact that some dyes, specifically Orange OT ([…]), are almost insoluble in water but dissolve in solutions with micellar aggregates that incorporate them; thus, the intensity of color of the solution increases with bile salt concentration (after CMC achievement). The amount of dye solubilized in relation to bile salt concentration was determined spectrophotometrically.
For each bile acid, various solution at different concentrations, between 50 mM and 0.1 mM with appropriate dilutions, were incubated under stirring at room temperature for 3 days with an excess of Orange OT. Then all the solutions were centrifuged and filtered through a 0.22 μm Millipore fiiter (Millipore Corp., Bedford, Mass.).

[2] = Lipophilicity, 1-octanol/water partition coefficient (shake-flask); assay type: physicochemical; conditions: pH 8.00, ionized BA
Experimental: The experiments were carried out on 1 mM initial bile salt solution buffered at pH 8.00 with 0.1 M potassium phosphate buffer to ensure complete ionization of the BA. BA concentration in the water phase before and after partition in 1-octanol was measured by HPLC-ESMS/MS as reported below.

[3] = target: bovine serum albumin (Bos taurus, UniProt P02769); test: Albumin binding by equilibrium dialysis; assay type: in vitro ADME; conditions: 5% bovine serum albumin saline solution, 25° C.
Experimental: BA was dissolved at a concentration of […] in 5% bovine serum albumin saline solution and left to stand for 24 hours at 25° C. Two milliliters of this solution was dialyzed in cellulose sacs with a molecular weight cut-off of 12-14 kDa (Spectra/Por; Spectrum Medical Industries Inc., Rancho Dominguez, Calif.) against 25 ml of saline solution. The system was equilibrated by mechanical shaking for 72 hours at 25° C. BA concentrations in the starting solution and in the dialyzed solution were determined by HPLC-ES-MS/MS as reported below.

[4] = pKa
[5] = Critical micellar concentration (surface tension / dye solubilization); assay type: physicochemical
[6] = Water solubility; assay type: physicochemical; conditions: 0.1 M HCl, pH 1.00, 25° C.; for solubility thermodynamic at 1 week: simulated gastric fluid, thermodynamic from solid, read-out: Ws; for Ws: 1 week
Experimental: BA were suspended in 100 ml of 0.1 M HCl, pH 1.00, and the saturated solutions were transferred to a thermostat-equipped water bath maintained at 25° C. After incubation for 1 week, the solutions were filtered on a Millipore filter ([…]), and the concentration of BA was measured by HPLC-ESMS/MS as reported below.

[7] = target: T1, mTGR5 (Mus musculus, UniProt Q80SS6); test: TGR5 activity: cAMP in mTGR5 CHO-Pi10 clone 4 cells; assay type: cell-based; conditions: mTGR5 CHO cells, value in parentheses; for Emax: 0.5 h, read-out: (mTGR5 CHO) Efficacy
T1 construct: expressed in transfected cells; host or cells: CHO-Pi10 clone 4
T1 sequence (Q80SS6 1-329): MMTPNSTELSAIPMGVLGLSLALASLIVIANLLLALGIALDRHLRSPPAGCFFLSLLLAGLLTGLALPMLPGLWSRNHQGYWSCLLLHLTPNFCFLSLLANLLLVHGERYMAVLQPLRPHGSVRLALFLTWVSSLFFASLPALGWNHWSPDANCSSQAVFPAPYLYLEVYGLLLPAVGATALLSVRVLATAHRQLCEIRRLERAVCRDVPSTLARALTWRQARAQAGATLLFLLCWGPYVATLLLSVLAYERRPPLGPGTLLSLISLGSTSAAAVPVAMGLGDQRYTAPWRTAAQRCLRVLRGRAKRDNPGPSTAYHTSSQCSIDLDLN

[8] = target: T2, human glutathione transferase-tagged FXR-LBD (Homo sapiens, UniProt Q96RI1); test: FXR AlphaScreen coactivator recruitment assay (human); assay type: biochemical; design: Emax: dose or concentration left out as unconfirmed; conditions: for EC50: human FXR-LBD, AlphaScreen, read-out: hFXR EC50; for Emax: read-out: hFXR Efficacy;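 as to hFXR Efficacy: CDCA at 50 µM taken as 100%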
T2 construct: human glutathione transferase-tagged FXR-LBD (Life Technologies, USA); purchased Life Technologies, USA
T2 sequence (Q96RI1 262-486 limits assumed): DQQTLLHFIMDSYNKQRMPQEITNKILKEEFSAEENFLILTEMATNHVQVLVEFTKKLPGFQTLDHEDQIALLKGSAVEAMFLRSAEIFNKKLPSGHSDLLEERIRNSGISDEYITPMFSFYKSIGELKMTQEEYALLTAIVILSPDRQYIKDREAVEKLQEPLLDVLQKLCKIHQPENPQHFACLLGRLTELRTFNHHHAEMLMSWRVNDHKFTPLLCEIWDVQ
Experimental: (§1) Activation of the FXR receptor was determined using a recruitment coactivator assay, namely AlphaScreen technology. The assays were performed using human glutathione transferase-tagged FXR-LBD (Life Technologies, USA) and mouse glutathione transferase-tagged FXR-LBD (generated in-house). Briefly, assays were conducted in white, low-volume, 384-well OptiPlate using a final volume of 25 μL containing 10 nM glutathione transferase-tagged FXR-LBD protein and 30 nM biotinylated Src-1 peptide. The stimulation was carried out with different BA concentrations for 30 minutes at 25° C. […] Dose-response curves were performed in triplicate and Z′ factor was used to validate the robustness of the assay.

[9] = target: T3, mouse glutathione transferase-tagged FXR-LBD (Mus musculus, UniProt Q60641); test: FXR AlphaScreen coactivator recruitment assay (mouse); assay type: biochemical; conditions: mouse FXR-LBD, value in parentheses; for EC50: read-out: (mFXR) EC50; for Emax: read-out: (mFXR) Efficacy
T3 construct: mouse glutathione transferase-tagged FXR-LBD (generated in-house); made in house
T3 sequence (Q60641 264-488 limits assumed): T2 sequence (Q96RI1 262-486 limits assumed) with H7D, F8Y, N46S, V50I, S95A, S98A, N107K, I125V, I174M, H175Y
Experimental: as §1

[10] = target: T4, TGR5 (Homo sapiens, UniProt Q8TDU6); test: TGR5 activity: intracellular cAMP levels, NCI-H716 cells (HTR-FRET); assay type: cell-based; design: endogenous in cells; host or cells: NCI-H716; conditions: NCI-H716 cells; for Emax: 1 h, Ref. LCA 100% at 10 μM, read-out: TGR5 (NCI-H716) Efficacy; for EC50: cAMP
T4 sequence (Q8TDU6 1-330): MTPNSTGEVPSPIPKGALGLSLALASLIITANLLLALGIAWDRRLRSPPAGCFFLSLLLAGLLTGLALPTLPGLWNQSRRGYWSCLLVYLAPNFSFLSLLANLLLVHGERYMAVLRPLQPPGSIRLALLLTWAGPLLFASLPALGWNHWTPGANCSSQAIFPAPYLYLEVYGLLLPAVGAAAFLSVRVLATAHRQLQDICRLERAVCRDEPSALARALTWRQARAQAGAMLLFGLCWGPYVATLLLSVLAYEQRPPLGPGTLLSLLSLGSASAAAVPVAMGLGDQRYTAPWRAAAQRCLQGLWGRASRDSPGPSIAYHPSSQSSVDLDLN
Experimental: Activation of TGR5 was assessed by measuring the level of cAMP using an HTR-FRET assay. Thus, NCI-H716 cells were cultured on 96-well plates coated with Matrigel (Corning, USA) (0.75 mg/ml) in DMEM supplemented with 10% FCS, 100 units/ml penicillin, and 100 μg/ml streptomycin sulphate. […] The level of intracellular cAMP was determined with Lance kit. Z′ factor was used to validate assays.

[11] = target: T4, TGR5; test: TGR5 activity: cAMP in hTGR5 CHO-k1 cells; assay type: cell-based; design: expressed in transfected cells; host or cells: CHO-k1; conditions: hTGR5 CHO cells; for Emax: 0.5 h, Ref. LCA 100% at 10 μM, read-out: hTGR5 CHO Efficacy; for EC50: cAMP

bovine serum albumin, sequence (P02769 25-607): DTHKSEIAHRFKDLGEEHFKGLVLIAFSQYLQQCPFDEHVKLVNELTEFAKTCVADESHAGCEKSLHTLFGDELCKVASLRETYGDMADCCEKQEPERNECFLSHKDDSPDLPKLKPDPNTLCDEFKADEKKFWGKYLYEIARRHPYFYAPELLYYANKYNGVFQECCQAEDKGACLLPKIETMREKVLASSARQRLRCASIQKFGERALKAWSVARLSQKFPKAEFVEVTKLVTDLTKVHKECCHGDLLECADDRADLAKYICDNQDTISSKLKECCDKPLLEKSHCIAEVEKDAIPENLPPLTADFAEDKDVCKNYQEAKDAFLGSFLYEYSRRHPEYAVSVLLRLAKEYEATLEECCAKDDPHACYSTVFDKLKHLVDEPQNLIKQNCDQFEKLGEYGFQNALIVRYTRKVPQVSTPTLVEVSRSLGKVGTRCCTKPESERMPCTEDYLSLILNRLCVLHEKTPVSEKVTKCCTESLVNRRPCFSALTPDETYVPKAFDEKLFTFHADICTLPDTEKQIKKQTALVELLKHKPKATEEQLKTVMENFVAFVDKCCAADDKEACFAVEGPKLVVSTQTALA

| CMC [1] [mM] | STCMC [1] [Dyne/cm] | Albumin binding (%) [3] [%] | Ws [6] | SMILES | LogPA− [2] | pKa [4] | CMpH [5] | solubility thermodynamic at 1 week [6] [µM] | Emax [7] [%] | EC50 [7] [nM] | EC50 [8] [nM] | Emax [8] [%] | EC50 [9] [nM] | Emax [9] [%] | Emax [10] [%] | EC50 [10] [nM] | Emax [11] [%] | EC50 [11] [nM] |
| --- | --- | --- | --- | --- | --- | --- | --- | --- | --- | --- | --- | --- | --- | --- | --- | --- | --- | --- |
| 4 | 51 | 42 | hs | C[C@H](CCC(=O)NCCS(=O)(=O)O)[C@H]1CC[C@H]2[C@@H]3[C@H](O)C[C@@H]4C[C@H](O)CC[C@]4(C)[C@H]3C[C@H](O)[C@]12C [TCA, reference compound] | −0.5 | <1 ^ |  |  |  |  |  |  |  |  |  |  |  |  |
| 3 | 47.1 | 70 | hs | C[C@H](CCC(=O)NCCS(=O)(=O)O)[C@H]1CC[C@H]2[C@@H]3[C@H](O)C[C@@H]4C[C@H](O)CC[C@]4(C)[C@H]3CC[C@]12C [TCDCA, reference compound] | 0.9 | <1 ^ |  |  |  |  |  |  |  |  |  |  |  |  |
| 10 | 50.5 | 94 |  | C[C@H](CCC(=O)O)[C@H]1CC[C@H]2[C@@H]3[C@@H](O)C[C@@H]4C[C@H](O)CC[C@]4(C)[C@H]3CC[C@]12C [UDCA, ursodeoxycholic acid, reference compound] | 2.2 |  | 8.2 | 7 (≈ 2.75 µg/mL) |  |  |  |  |  |  |  |  |  |  |

The next lines start with the molecule.

| SMILES | CMC [1] [mM] | STCMC [1] [Dyne/cm] | Albumin binding (%) [3] [%] | Ws [6] | LogPA− [2] | pKa [4] | CMpH [5] | solubility thermodynamic at 1 week [6] [µM] | Emax [7] [%] | EC50 [7] [nM] | EC50 [8] [nM] | Emax [8] [%] | EC50 [9] [nM] | Emax [9] [%] | Emax [10] [%] | EC50 [10] [nM] | Emax [11] [%] | EC50 [11] [nM] |
| --- | --- | --- | --- | --- | --- | --- | --- | --- | --- | --- | --- | --- | --- | --- | --- | --- | --- | --- |
| C[C@H](CCC(=O)O)[C@H]1CC[C@H]2[C@@H]3[C@H](O)C[C@@H]4C[C@H](O)CC[C@]4(C)[C@H]3CC[C@]12C [CDCA, chenodeoxycholic acid, reference compound] | 3.2 | 45.5 | 96 |  | 2.2 | 5 | 7 |  |  |  |  |  |  |  |  |  |  |  |
| CC[C@H]1[C@@H](O)C2C3CC[C@H]([C@H](C)CC(F)(F)C(=O)O)[C@@]3(C)[C@@H](O)CC2[C@@]2(C)CC[C@@H](O)C[C@@H]12 (stereo partly drawn) [Compound 3, 3α,7α,12α-Trihydroxy-6α-ethyl-23,23-gemdifluoro-5β-cholan-24-oic acid] | 10 |  |  |  | 1.0 | 1.1 | 2.7 | 225 (≈ 106 µg/mL) |  |  |  |  |  |  |  |  |  |  |
| CC[C@H]1[C@@H](O)C2C3CC[C@H]([C@H](C)CCc4nn[nH]n4)[C@@]3(C)CCC2[C@@]2(C)CC[C@@H](O)C[C@@H]12 (stereo partly drawn) [Compound 15, 3α,7α-Dihydroxy-6α-ethyl-23-(tetrazol-5-yl)-6α-ethyl-24-nor-5β-cholane] |  |  | 76 |  | 1.2 | 5.59 |  | 132 (≈ 58.7 µg/mL) | 102 | 440 | 150 ± 50 | 173 ± 22 | 6000 | 222 | 97 ± 7.6 | 5000 ± 1000 | 99 ± 3 | 720 ± 50 |
| CC[C@H]1[C@@H](O)C2C3CC[C@H]([C@H](C)CC(=O)NCCOS(=O)(=O)[O-])[C@@]3(C)CCC2[C@@]2(C)CC[C@@H](O)C[C@@H]12.[Na+] (stereo partly drawn) [Compound 21, Sodium 2-(3α,7α-dihydroxy-6α-ethyl-24-nor 5β-cholan-23-amido)-ethyl sulfate] | 4 |  | 86 |  | 0.9 | < 1 |  | 1810 | 107 | 70 | 1500 ± 500 | 136 ± 7 | 5400 | 136 | 127 ± 1 | 190 ± 50 | 105 ± 2 | 20 ± 10 |
| CC[C@H]1[C@@H](O)C2C3CC[C@H]([C@H](C)C[C@H](C)C(=O)O)[C@@]3(C)[C@@H](O)CC2[C@@]2(C)CC[C@@H](O)C[C@@H]12 (stereo partly shown) [Ref. Cmpd. A, reference compound] | 2 | 50.1 | 62 |  | 1.4 | 5 | 6.1 |  |  |  |  |  |  |  |  |  |  |  |
